Values quoted from earlier work as cited in US9180195B2, “Controlled release gels” (Nano Fiber Matrices B.V., priority 2005, dated 2015).

Details: for time to complete release from LMWG gel: from gels of N,N′-dibenzoyl-L-cystine (DBC)

SMILES	time to complete release from LMWG gel	initial release rate relative to AQ (from gels of DBC)
Nc1cccc2cccnc12 [AQ, 8-aminoquinoline]	~1 h	
Oc1ccc2ccccc2n1 [HQ, 2-hydroxyquinoline]	approximately 15 min	approximately seven
